Reference: patent publication US7183312B2, “Taxanes having a C7 heterosubstituted acetate substituent” (FSU Research Foundation, Inc., priority 2000, dated 2007)
pIC50: −log10 of the molar value.

Test system: HCT116
Test: In vitro cytotoxicity measured by the cell colony formation assay
Type: cell-based
Settings: HCT116 cells; incubated with drugs for 72 h at 37° C.; colonies counted after 7 days; ID50 = drug concentration producing 50% inhibition of colony formation; read-out: IN VITRO ID 50 (nm) HCT116
Experimental: In Vitro Cytotoxicity Measured by the Cell Colony Formation Assay
Four hundred cells (HCT116) were plated in 60 mm Petri dishes containing 2.7 mL of medium (modified McCoy's 5a medium containing 10% fetal bovine serum and 100 units/mL penicillin and 100 µg/mL streptomycin). The cells were incubated in a CO2 incubator at 37° C. for 5 h for attachment to the bottom of Petri dishes. The compounds identified in Example 2 were made up fresh in medium at ten times the final concentration, and then 0.3 mL of this stock solution was added to the 2.7 mL of medium in the dish. The cells were then incubated with drugs for 72 h at 37° C. At the end of incubation the drug-containing media were decanted, the dishes were rinsed with 4 mL of Hank's Balance Salt Solution (HBSS), 5 mL of fresh medium was added, and the dishes were returned to the incubator for colony formation. The cell colonies were counted using a colony counter after incubation for 7 days.

Question: How did the pIC50 turn out when `COCC(=O)O[C@H]1C[C@H]2OC[C@@]2(OC(C)=O)C2[C@H](OC(=O)c3ccccc3)[C@]3(O)C[C@H](OC(=O)[C@H](O)[C@@H](NC(=O)OC(C)(C)C)c4ccco4)C(C)=C([C@@H](O)C(=O)[C@@]21C)C3(C)C` (some centres unmarked) [Compound 5445] was run?
Answer: > 9.00

Question: `COCC(=O)O[C@H]1C[C@H]2OC[C@@]2(OC(C)=O)C2[C@H](OC(=O)c3ccccc3)[C@]3(O)C[C@H](OC(=O)[C@H](O)[C@@H](NC(=O)C=C(C)C)c4ccco4)C(C)=C([C@@H](O)C(=O)[C@@]21C)C3(C)C` (some centres unmarked) [Compound 5474] was tested. Which pIC50 did it give?
Answer: > 9.00

Question: How did the pIC50 turn out when `CC(=O)OCC(=O)O[C@H]1C[C@H]2OC[C@@]2(OC(C)=O)C2[C@H](OC(=O)c3ccccc3)[C@]3(O)C[C@H](OC(=O)[C@H](O)[C@@H](NC(=O)C=C(C)C)c4ccco4)C(C)=C([C@@H](O)C(=O)[C@@]21C)C3(C)C` (some centres unmarked) [Compound 5544] was run?
Answer: > 9.00

Question: How did the pIC50 turn out when `CC(=O)O[C@@]12CO[C@@H]1C[C@H](OC(=O)COc1ccccc1)[C@@]1(C)C(=O)[C@H](O)C3=C(C)[C@@H](OC(=O)[C@H](O)[C@@H](NC(=O)C=C(C)C)c4ccco4)C[C@@](O)([C@@H](OC(=O)c4ccccc4)C12)C3(C)C` (some centres unmarked) [Compound 5555] was run?
Answer: > 9.00

Question: `CSCC(=O)O[C@H]1C[C@H]2OC[C@@]2(OC(C)=O)C2[C@H](OC(=O)c3ccccc3)[C@]3(O)C[C@H](OC(=O)[C@H](O)[C@@H](NC(=O)OC(C)(C)C)c4ccco4)C(C)=C([C@@H](O)C(=O)[C@@]21C)C3(C)C` (some centres unmarked) [Compound 5600] was tested. Which pIC50 did it give?
Answer: > 9.00

Question: `CC(=O)O[C@@]12CO[C@@H]1C[C@H](OC(=O)COc1ccccc1)[C@@]1(C)C(=O)[C@H](O)C3=C(C)[C@@H](OC(=O)[C@H](O)[C@@H](NC(=O)OC(C)(C)C)c4ccco4)C[C@@](O)([C@@H](OC(=O)c4ccccc4)C12)C3(C)C` (some centres unmarked) [Compound 5616] was tested. Which pIC50 did it give?
Answer: > 9.00

Question: How did the pIC50 turn out when `CC(=O)OCC(=O)O[C@H]1C[C@H]2OC[C@@]2(OC(C)=O)C2[C@H](OC(=O)c3ccccc3)[C@]3(O)C[C@H](OC(=O)[C@H](O)[C@@H](NC(=O)OC(C)(C)C)c4ccco4)C(C)=C([C@@H](O)C(=O)[C@@]21C)C3(C)C` (some centres unmarked) [Compound 5622] was run?
Answer: > 9.00

Question: `C/C=C/C(=O)N[C@@H](c1ccco1)[C@@H](O)C(=O)O[C@H]1C[C@@]2(O)[C@@H](OC(=O)c3ccccc3)C3[C@](C)(C(=O)[C@H](O)C(=C1C)C2(C)C)[C@@H](OC(=O)COc1ccccc1)C[C@H]1OC[C@@]31OC(C)=O` (some centres unmarked) [Compound 5811] was tested. Which pIC50 did it give?
Answer: > 9.00

Question: `C/C=C/C(=O)N[C@@H](c1ccco1)[C@@H](O)C(=O)O[C@H]1C[C@@]2(O)[C@@H](OC(=O)c3ccccc3)C3[C@](C)(C(=O)[C@H](O)C(=C1C)C2(C)C)[C@@H](OC(=O)COC)C[C@H]1OC[C@@]31OC(C)=O` (some centres unmarked) [Compound 5835] was tested. Which pIC50 did it give?
Answer: > 9.00

Question: With `CCC(C)(C)OC(=O)NC(c1ccco1)C(O)C(=O)OC1CC2(O)C(OC(=O)c3ccccc3)C3C4(OC(C)=O)COC4CC(OC(=O)COC)C3(C)C(=O)C(O)C(=C1C)C2(C)C` (centres unmarked) [Compound 6226, N-Debenzoyl-N-tert-amyloxycarbonyl-3′-desphenyl-3′-(2-furyl)-10-deacetyl-7-methoxyacetyl taxol] as the compound, how does the pIC50 read?
Answer: > 9.00

Question: `CCC(C)(C)OC(=O)N[C@@H](c1ccco1)[C@@H](O)C(=O)O[C@H]1C[C@@]2(O)[C@@H](OC(=O)c3ccccc3)C3[C@](C)(C(=O)[C@H](O)C(=C1C)C2(C)C)[C@@H](OC(=O)COC(C)=O)C[C@H]1OC[C@@]31OC(C)=O` (some centres unmarked) [Compound 6353] was tested. Which pIC50 did it give?
Answer: > 9.00
